These results are taken from patent US8629242B2, “Methods of inhibiting calcineurin with ApoE analogs” (Cognosci, Inc., priority 2007, dated 2014).

Where a SMILES comes first, the peptide text is derived from it. [ ]: non-standard residue; d: D form. Aib = CC(C)(N)C(=O)O

For experiment [1], the system named is peritoneal macrophages isolated from EAE mice. The experiment in a line: In vitro effect on LPS+IFN-γ-induced inflammatory mediators in macrophages from saline-treated EAE mice. The format is cell-based. To be noted: for inhibition of NO release: 72 hours after LPS+IFN-γ; for NOS2 expression (real-time PCR): normalized to 18S rRNA, fold change vs control. As to the method: FIG. 5. In vitro effects of COG compounds on LPS and IFN-γ-induced production of inflammatory mediators in cultured peritoneal macrophages isolated from EAE mice. Conditioned medium with or without COG 133 or COG 112 was collected 45 hours after immunogen exposure for analysis of TNF-α (A) and IL-6 (B), or 72 hours after inflammatory stimulation for measurement of nitrite (C). Level of NOS2 expression was assessed by quantitative real-time PCR (D). NOS2 expression was first normalized by the endogenous control (18S rRNA) and then expressed as fold change compared to control group. Statistical analysis was performed by ANOVA and significance was shown as *(p<0.05) and **(p<0.001).
We then examined the ability of COG 112 (SEQ ID NO: 5) and COG 133 (SEQ ID NO: 1) to inhibit the in vitro release of NO, TNF-α and IL-6 using macrophages obtained from saline-treated EAE mice on dpi 35. Conditioned medium with or without COG 133 or COG 112 was collected 45 hours after immunogen (LPS+IFN-γ) exposure for analysis of TNF-α and IL-6, or 72 hours after stimulation for measurement of nitrite. […] Levels of NOS2 expression were quantified by real-time PCR. NOS2 expression was first normalized by the endogenous control (18S rRNA) and then expressed as fold change compared to control group.
(Real-time PCR tracks product formation cycle by cycle.)

For another experiment, the system named is cerebellar slices. The experiment in a line: Lysolecithin-induced demyelination in organotypic cerebellar slice culture. The format is cell-based, rat. As for the experimental part: FIG. 7. COG 112 promotes remyelination in a lysolecithin-induced demyelination model in cerebellum slice culture. Cerebellum slices from postnatal day 10 rat pups were cultured for 7 days. Lysolecithin was added to a final concentration of 0.5 mg/ml and then removed after incubation overnight (15˜17 hr). 1 μM COG 112 was added to the slice and cultured for 5 days. The cerebellar slices were either immunohistologically stained with MBP; or collected and lysed for western blotting with myelin marker MBP. (A) naïve slice; (B) 2 days after lysolecithin treatment; (C) day 7 after lysolecithin treatment; (D) day 7 after lysolecithin treatment with COG 112 added on day 3; (E) Western blot of cerebellar lysates probed for MBP; (F) Densitometry analysis of blots probed for MBP. The density of each MBP band was normalized to density of β-actin band. One-way ANOVA was used for statistical analysis. n=4
FIG. 8. COG 112 prevents lysolecithin-induced cell death of oligodendrocytes in cerebellum slice culture. Cerebellum slices from postnatal day 10 rat pups were cultured for 7 days. Lysolecithin was added to a final concentration of 0.5 mg/ml with and without COG 112 (1 μM). After incubation overnight (16 hr), medium was replaced with fresh lysolecithin-free medium, but still containing COG 112 for the COG 112 treatment group. After two days, the cerebellar slices were collected and lysed for western blotting with myelin marker MBP (left panel) and oligodendrocyte marker CNPase (right panel). The density of each MBP or CNPase band was normalized to the density of the β-actin band. One-way ANOVA was used for statistical analysis. n=4, * p<0.01.
FIG. 19. COG 345 promotes remyelination in lysolecithin-induced demyelination model of cerebellum slices. Significant demyelination was induced by lysolecithin (0.5 mg/ml) in cerebellar slices. COG 112 or COG 345 (1 μM) was added on day 3 when full demyelination was achieved. 4 days later, the slices were fixed and double stained with myelin marker MBP (green) and Purkinje cell marker calbindin (red). (A) Untreated-slices; (B) lysolecithin-treated slices; (C) COG 112-treated slices after lysolecithin exposure; (D) COG 345-treated slices after lysolecithin exposure. E-F. ApoE analogs protect OPCs from LPS-induced cell death in OPC/microglia mixed culture. OPCs and microglia derived from brain culture of P2 rat pups were plated in 96-well plates in 1:1 ratio. LPS (10 ng/ml) together with 1 μM of the indicated ApoE analogs was added to the cultures. After 24 hours, OPC cell death was quantified by LDH assay (E) and MTT assay (F). Statistical analysis was conducted by one-way ANOVA followed by Dunnett comparison vs. LPS group. * P<0.01, ** P<0.001, n=3.
The effect of COG peptides (i.e. ApoE analogs) on remyelination in a second model of demyelination was examined. For this series of experiments, a lysolecithin-induced in vitro demyelination model in an organotypic cerebellar slice culture was used. Parasagittal slices of postnatal Day 10 (P10) rat cerebellum were cut at 400 μm using a Tissue Slicer (SD Instruments, Grants Pass, Oreg.). After culture in conditioned medium for 7 days in vitro (DIV), fresh medium with lysolecithin (0.5 mg/ml) was added to the slice and incubated overnight (15-17 hours) at 37° C. The lysolecithin-containing medium was then replaced with fresh medium without lysolecithin. On day 3, COG 112 (1 μM) was added to the slice with fresh medium. After incubation for 5 days, the cerebellar slices were either immunohistologically stained for myelin basic protein (MBP), a myelin marker, (FIG. 7A-D) or lysed for western blotting and subsequent probing for MBP (FIGS. 7E and F). […] Similar results were obtained from the Western blot analysis of lysates of the cerebellar slices (FIGS. 7E and F). […] In addition, the blots of cerebellar slice lysate were also probed for oligodendrocyte (OL) marker 2′,3′-Cyclic Nucleotide 3′-Phosphodiesterase (CNPase). […]

[2] abbreviates: 1 μM added on day 3 after lysolecithin, 5 days.
Setting [3] is: 1 μM added together with lysolecithin, 2 days after.
[4] abbreviates: 45 hours after LPS+IFN-γ, dose-dependent suppression.

Turning to `CC(=O)N[C@@H](CC(C)C)C(=O)N[C@@H](CCCNC(=N)N)C(=O)N[C@H](C(=O)N[C@@H](CCCNC(=N)N)C(=O)N[C@@H](CC(C)C)C(=O)N[C@@H](C)C(=O)N[C@@H](CO)C(=O)N[C@@H](Cc1c[nH]cn1)C(=O)N[C@@H](CC(C)C)C(=O)N[C@@H](CCCNC(=N)N)C(=O)N[C@@H](CCCCN)C(=O)N[C@@H](CC(C)C)C(=O)N[C@@H](CCCNC(=N)N)C(=O)N[C@@H](CCCCN)C(=O)N[C@@H](CCCNC(=N)N)C(=O)N[C@@H](CC(C)C)C(=O)N[C@@H](CC(C)C)C(N)=O)C(C)C` [COG 133], in experiment [1] (5 μM, 45 hours after LPS+IFN-γ), the “suppression of IL-6” value was “only moderate, yet statistically significant, suppression” and the “suppression of TNF-α” value is recorded as “only moderate, yet statistically significant, suppression”. Besides, the “inhibition of NO release” value in experiment [1] (5 μM) was “about 37%”. Moreover, the “NOS2 expression (real-time PCR)” value in experiment [1] is given as “affect NOS2 expression”.
For `CC(=O)NC(=N)NCCC[C@H](NC(=O)[C@H](CCCCN)NC(=O)[C@H](CCCNC(=N)N)NC(=O)[C@H](CC(C)C)NC(=O)[C@H](CCCCN)NC(=O)[C@H](CCCNC(=N)N)NC(=O)[C@H](CC(C)C)NC(=O)C(C)(C)NC(=O)[C@H](CO)NC(=O)[C@H](C)NC(=O)[C@H](CC(C)C)NC(=O)[C@H](CCCNC(=N)N)NC(=O)[C@@H](NC(=O)[C@H](CCCNC(=N)N)NC(=O)[C@H](CC(C)C)NC(C)=O)C(C)C)C(=O)N[C@@H](CC(C)C)C(=O)N[C@@H](CC(C)C)C(N)=O` [COG 345, acetyl-LRVRLAS-Aib-LRKLRK(acetyl-Arg)LL-amide] (Ac-LRVRLAS[Aib]LRKLRKR(Ac)LL-NH2), the “myelination (MBP/calbindin double staining)” value with cerebellar slices (1 μM added three days after lysolecithin, 4 days) is recorded as “dramatically restored myelination”.
With “Ac-RQIKIWFQNRRMKWKKCLRVRLASHLRKLRKRLL-NH2 [COG 112]”, in the experiment on cerebellar slices (setting [2]), the “MBP levels (Western blot)” value is given as “increased MBP levels” and the “level of MBP protein (immunostaining)” value was “robustly elevated”. Further, in the experiment with cerebellar slices (setting [3]), the “prevention of lysolecithin-induced demyelination (MBP Western blot)” value is “did not prevent lysolecithin-induced demyelination” and the “prevention of oligodendrocyte cell death (CNPase Western blot)” value is reported as “did prevent oligodendrocyte cell death”. For the same molecule, the “level of CNPase (Western blot)” value in the experiment with cerebellar slices (1 μM post-treatment, data not shown) was “significantly increased”. In experiment [1] (5 μM), the “inhibition of NO release” value was “completely inhibited”. In experiment [1] (setting [4]), the “concentration giving complete inhibition of IL-6 levels” value is “about 5 μM” and the “concentration giving complete inhibition of TNF-α levels” value is reported as “about 5 μM”. Also, the “NOS2 expression (real-time PCR)” value in experiment [1] was “more potent effect than COG 133”.
